According to patent publication US12371454B2, “Cyclic peptide compound having Kras inhibitory action” (priority 2019, dated 2025):
Starred links: 1 amine or outer side, 2 acyl side, 3 side chain; linkers in the order of their positions; H or OH if unused. Positions of bridges follow the written chain, without caps; N, C: chain ends. Non-standard residues stand in square brackets, D forms with d. Residues, ends and D or L forms follow the SMILES beside them. *: point of attachment. hPhe(3-Cl-4-CF3) = N[C@@H](CCc1ccc(C(F)(F)F)c(Cl)c1)C(=O)O; X23 = CN([C@@H](Cc1ccccc1OC(F)(F)F)C(=O)[*:2])[*:1]; NMePhe(4-Me) = CN[C@@H](Cc1ccc(C)cc1)C(=O)O; NMePhe(4-F) = CN[C@@H](Cc1ccc(F)cc1)C(=O)O; NMeNva(5,5-F2) = CN[C@@H](CCC(F)F)C(=O)O; NMeGly(cPent) = CN[C@H](C(=O)O)C1CCCC1; NMeAla(cPr) = CN[C@@H](CC1CC1)C(=O)O; NMeCha = CN[C@@H](CC1CCCCC1)C(=O)O; NMeGly(cPr) = CN[C@H](C(=O)O)C1CC1; NMeChg = CN[C@H](C(=O)O)C1CCCCC1; NMeI = CC[C@H](C)[C@H](NC)C(=O)O; NMeD = CN[C@@H](CC(=O)O)C(=O)O; NMeL = CN[C@@H](CC(C)C)C(=O)O; hLeu = CC(C)CC[C@H](N)C(=O)O; NMeV = CN[C@H](C(=O)O)C(C)C; d(β3hA) = C[C@@H](N)CC(=O)O; Ac6c = NC1(C(=O)O)CCCCC1; NMeA = CN[C@@H](C)C(=O)O; Piperidide = C1CCN(*)CC1; Pyrrolidide = C1CCN(*)C1; dNMeA = CN[C@H](C)C(=O)O; Ac5c = NC1(C(=O)O)CCCC1; Aze = O=C(O)[C@@H]1CCN1; Sar = CNCC(=O)O

molecular target: T1, Kras and SOS1 (biotin-tagged human Kras loaded with GDP, His-tagged human SOS1) (Homo sapiens, UniProt P01116, G12D); assay: Protein-protein interaction inhibition between Kras and SOS1 (KrasGl2D-SOS PPI) using AlphaScreen; assay type: binding; details: AlphaScreen; biotin-tagged human Kras loaded with GDP, His-tagged human SOS1; read-out: KRAS G12D-SOS PPI IC50
T1 construct: made in house; host or cells: E. coli (stated for Kras only)
Outline: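 Binding between SOS1 and Kras is detected as bead-proximity luminescence: illuminate Ni-conjugated donors (680 nm), collect 520-620 nm emission from streptavidin-conjugated acceptors; Kras carries biotin and GDP loaded after purification, SOS1 carries a His tag.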

T1 sequence (P01116 1-188 isoform P01116-2 G12D): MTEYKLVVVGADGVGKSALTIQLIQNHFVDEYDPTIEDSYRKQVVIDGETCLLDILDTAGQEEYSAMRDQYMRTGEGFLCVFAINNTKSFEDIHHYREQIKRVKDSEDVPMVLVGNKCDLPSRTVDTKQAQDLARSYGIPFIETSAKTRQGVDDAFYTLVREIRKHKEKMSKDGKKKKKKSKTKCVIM

| Structure (SMILES) | IC50 [nM] |
| --- | --- |
| CC[C@H](C)[C@@H]1NC(=O)[C@H](CC(C)C)N(C)C(=O)C[C@@H](C)NC(=O)[C@H](C(C)C)N(C)C(=O)C2(CCCC2)NC(=O)[C@@H]2CCCN2C(=O)[C@H](CCc2ccc(C(F)(F)F)c(Cl)c2)NC(=O)CN(C)C(=O)[C@H](Cc2ccccc2OC(F)(F)F)N(C)C(=O)CN(C)C(=O)CN(C)C1=O [Compound 1635] (cyclo([Ac5c][NMeV][d(β3hA)][NMeL]I[Sar][Sar][X23][Sar][hPhe(3-Cl-4-CF3)]P)) | 140 |
| CC[C@H](C)[C@@H]1NC(=O)[C@H](CC(C)C)N(C)C(=O)C[C@@H](C(=O)N2CCCCC2)N(C)C(=O)[C@H](C(C)C)N(C)C(=O)C2(CCCC2)NC(=O)[C@@H]2CCCN2C(=O)[C@H](CCc2ccc(C(F)(F)F)c(Cl)c2)NC(=O)CN(C)C(=O)[C@H](CC2CCCCC2)N(C)C(=O)[C@@H]2CCN2C(=O)[C@H](CC2CC2)N(C)C1=O [Compound 1642] ([NMeL]I[NMeAla(cPr)][Aze][NMeCha][Sar][hPhe(3-Cl-4-CF3)]P[Ac5c][NMeV][NMeD]-Piperidide; lactam N-11) | 58 |
| CC[C@H](C)[C@@H]1NC(=O)[C@H](CC(C)C)N(C)C(=O)C[C@@H](C(=O)N2CCCCC2)N(C)C(=O)[C@H](C2CCCCC2)N(C)C(=O)C2(CCCCC2)NC(=O)[C@@H]2CCCN2C(=O)[C@H](CCc2ccc(C(F)(F)F)c(Cl)c2)NC(=O)CN(C)C(=O)[C@H](CC2CCCCC2)N(C)C(=O)CN(C)C(=O)CN(C)C1=O [Compound 1644] ([NMeL]I[Sar][Sar][NMeCha][Sar][hPhe(3-Cl-4-CF3)]P[Ac6c][NMeChg][NMeD]-Piperidide; lactam N-11) | 3.1 |
| CC[C@H](C)[C@@H]1NC(=O)[C@H](CC(C)C)N(C)C(=O)C[C@@H](C(=O)N2CCCCC2)N(C)C(=O)[C@H](C2CCCCC2)N(C)C(=O)C2(CCCC2)NC(=O)[C@@H]2CCCN2C(=O)[C@H](CCc2ccc(C(F)(F)F)c(Cl)c2)NC(=O)CN(C)C(=O)[C@H](CCC(F)F)N(C)C(=O)CN(C)C(=O)CN(C)C1=O [Compound 1647] ([NMeL]I[Sar][Sar][NMeNva(5,5-F2)][Sar][hPhe(3-Cl-4-CF3)]P[Ac5c][NMeChg][NMeD]-Piperidide; lactam N-11) | 3 |
| CC[C@H](C)[C@@H]1NC(=O)[C@H](CC(C)C)N(C)C(=O)C[C@@H](C(=O)N2CCCCC2)N(C)C(=O)[C@H]([C@@H](C)CC)N(C)C(=O)C2(CCCC2)NC(=O)[C@@H]2CCCN2C(=O)[C@H](CCc2ccc(C(F)(F)F)c(Cl)c2)NC(=O)CN(C)C(=O)[C@H](Cc2ccc(C)cc2)N(C)C(=O)CN(C)C(=O)CN(C)C1=O [Compound 1649] ([NMeL]I[Sar][Sar][NMePhe(4-Me)][Sar][hPhe(3-Cl-4-CF3)]P[Ac5c][NMeI][NMeD]-Piperidide; lactam N-11) | 0.42 |
| CC(C)CC[C@@H]1NC(=O)[C@H](CC(C)C)N(C)C(=O)C[C@@H](C(=O)N2CCCCC2)N(C)C(=O)[C@H](C2CCCCC2)N(C)C(=O)C2(CCCC2)NC(=O)[C@@H]2CCCN2C(=O)[C@H](CCc2ccc(C(F)(F)F)c(Cl)c2)NC(=O)CN(C)C(=O)[C@H](CC2CCCCC2)N(C)C(=O)CN(C)C(=O)CN(C)C1=O [Compound 1651] ([NMeL][hLeu][Sar][Sar][NMeCha][Sar][hPhe(3-Cl-4-CF3)]P[Ac5c][NMeChg][NMeD]-Piperidide; lactam N-11) | 4.9 |
| CC[C@H](C)[C@@H]1NC(=O)[C@H](C)N(C)C(=O)C[C@@H](C)NC(=O)[C@H](C(C)C)N(C)C(=O)C2(CCCC2)NC(=O)[C@@H]2CCCN2C(=O)[C@H](CCc2ccc(C(F)(F)F)c(Cl)c2)NC(=O)[C@@H](C)N(C)C(=O)[C@H](Cc2ccc(F)cc2)N(C)C(=O)CN(C)C(=O)CN(C)C1=O [Compound 1655] (cyclo([Ac5c][NMeV][d(β3hA)][NMeA]I[Sar][Sar][NMePhe(4-F)][dNMeA][hPhe(3-Cl-4-CF3)]P)) | 85 |
| CC[C@H](C)[C@@H]1NC(=O)[C@H](CC(C)C)N(C)C(=O)C[C@@H](C(=O)N(C)C)N(C)C(=O)[C@H](C2CCCC2)N(C)C(=O)C2(CCCC2)NC(=O)[C@@H]2CCCN2C(=O)[C@H](CCc2ccc(C(F)(F)F)c(Cl)c2)NC(=O)CN(C)C(=O)[C@H](CC2CCCCC2)N(C)C(=O)CN(C)C(=O)CN(C)C1=O [Compound 1659] ([NMeL]I[Sar][Sar][NMeCha][Sar][hPhe(3-Cl-4-CF3)]P[Ac5c][NMeGly(cPent)][NMeD]-NMe2; lactam N-11) | 0.38 |
| CC[C@H](C)[C@@H]1NC(=O)[C@H](CC(C)C)N(C)C(=O)C[C@@H](C(=O)N2CCCC2)N(C)C(=O)[C@H]([C@@H](C)CC)N(C)C(=O)C2(CCCC2)NC(=O)[C@@H]2CCCN2C(=O)[C@H](CCc2ccc(C(F)(F)F)c(Cl)c2)NC(=O)CN(C)C(=O)[C@H](CC2CCCCC2)N(C)C(=O)CN(C)C(=O)CN(C)C1=O [Compound 1662] ([NMeL]I[Sar][Sar][NMeCha][Sar][hPhe(3-Cl-4-CF3)]P[Ac5c][NMeI][NMeD]-Pyrrolidide; lactam N-11) | 0.65 |
| CC[C@H](C)[C@@H]1NC(=O)[C@H](CC(C)C)N(C)C(=O)C[C@@H](C(=O)N2CCCCC2)N(C)C(=O)[C@H](C2CCCCC2)N(C)C(=O)C2(CCCC2)NC(=O)[C@@H]2CCCN2C(=O)[C@H](CCc2ccc(C(F)(F)F)c(Cl)c2)NC(=O)CN(C)C(=O)[C@H](C2CC2)N(C)C(=O)CN(C)C(=O)CN(C)C1=O [Compound 1666] ([NMeL]I[Sar][Sar][NMeGly(cPr)][Sar][hPhe(3-Cl-4-CF3)]P[Ac5c][NMeChg][NMeD]-Piperidide; lactam N-11) | 1.1 |
